Laboratory results: US20250387375A1, “SOFALCONE DERIVATIVES AND MEDICAL USE THEREOF” (KAOHSIUNG MEDICAL UNIVERSITY, priority 2024, published 2025)

Tested on: human platelet suspension (platelet aggregation caused by collagen)
Test: Platelet aggregation reaction test, collagen-induced
Type: cell-based
Conditions: read-out: Collagen IC 50
Experimental: (§1) Blood samples were collected from healthy donors, and acid-citrate-dextrose (ACD) solution was used as an anticoagulant. The blood samples were centrifuged to obtain platelets, and residual plasma was removed by washing to prepare platelet suspension.
(§2) In the experimental method, a platelet aggregometer (Chrono-Log Co., Havertown, PA, USA) was used for tests. The compound to be tested was added to the platelet suspension and reacted for 3 minutes at 37° C. with stirring (1200 rpm). Then, platelet stimulator U46619 or collagen was added to initiate platelet aggregation, and the test time was 5 minutes. The principle of the platelet aggregation test was: when platelets were stimulated to induce aggregation reaction, the light transmission of the platelet suspension would increase; by calculating changes in light transmission of the platelet suspension before and after being stimulated, the percentage of platelet aggregation could be obtained.

Compared with `CC(C)=CCOc1ccc(C=CC(=O)c2ccccc2OCCCC(=O)O)cc1` [Compound 99], `CC(C)=CCOc1ccc(C=CC(=O)c2ccccc2OCCCCCC(=O)O)cc1` [Compound 103] is 17-fold lower in IC50: 6.42 µM for the first, 0.38 µM for the second. The second is the more potent here.

Going from `COC(=O)COc1cc(OCC=C(C)C)ccc1C(=O)CCc1ccc(OCC=C(C)C)cc1` [Compound 74] to `CC(C)=CCOc1cccc(/C=C/C(=O)c2ccc(OCC=C(C)C)cc2OCC(=O)O)c1` [Compound 20], the IC50 falls from > 100 µM to 28.3 µM. The second is the more potent here.

Going from `CCOC(=O)COc1ccccc1C(=O)C=Cc1ccc(O)cc1` [Compound 42] to `CCOC(=O)COc1ccccc1C(=O)C=Cc1ccc(N)cc1` [Compound 46], the IC50 rises from 1.59 µM to 5.08 µM (3.2-fold). The first is the more potent here.

Compared with `O=C(O)CCCCOc1ccccc1C(=O)C=Cc1ccccc1` [Compound 101], `CCOC(=O)CCCCCOc1ccccc1C(=O)C=Cc1ccccc1` [Compound 111] is 15-fold lower in IC50: 3.25 µM for the first, 0.22 µM for the second. The second is the more potent here.

Compared with `CC(C)=CCOc1ccc(/C=C/C(=O)c2ccc(F)cc2OCCCC(=O)O)cc1` [Compound 9], `CC(C)=CCOc1ccc(C(=O)/C=C/c2ccccc2F)c(OCCCC(=O)O)c1` [Compound 13] is 7.9-fold lower in IC50: 5.14 µM for the first, 0.65 µM for the second.

Going from `COC(=O)COc1cc(O)ccc1C(=O)C=Cc1ccc(O)cc1` [Compound 69] to `O=C(O)COc1cc(O)ccc1C(=O)C=Cc1ccc(O)cc1` [Compound 71], the IC50 rises from 3.42 µM to > 100 µM. The first is the more potent here.

Compared with `O=C(O)CCCCCOc1ccccc1C(=O)C=Cc1cccnc1` [Compound 54], `O=C(O)CCCCCOc1ccccc1C(=O)C=Cc1ccccn1` [Compound 53] is 2-fold higher in IC50: 22.1 µM for the first, 44.4 µM for the second.

First: O=C(O)COc1ccccc1C(=O)C=Cc1ccc(Br)s1 [Compound 58]
Second: O=C(O)COc1ccccc1C(=O)/C=C/c1ccc(F)cc1 [Compound 28]
The IC50 of the first is 9.7-fold higher: 40.9 µM for the first, 4.22 µM for the second.

Going from `CCOC(=O)COc1ccc(C=CC(=O)c2ccc(OCC(=O)OCC)cc2OCC(=O)O)cc1` [Compound 84] to `COc1ccc(/C=C/C(=O)c2ccc(OC)cc2OCC(=O)O)cc1` [Compound 18], the IC50 falls from > 100 µM to 96.2 µM.

`CCOC(=O)CCCCCOc1ccccc1C(=O)C=Cc1cccs1` [Compound 61] and `O=C(O)CCCCCOc1ccccc1C(=O)C=Cc1cccs1` [Compound 51] are within 1.5-fold of each other in IC50: 0.56 µM for the first, 0.62 µM for the second.

Going from `CC(C)=CCOc1ccc(C(=O)/C=C/c2ccccc2)c(OCC(=O)O)c1` [Compound 22] to `CC(C)=CCCC(C)=CCOc1ccc(C(=O)C=Cc2ccccc2)c(OCCCC(=O)O)c1` [Compound 7], the IC50 falls from 12.8 µM to 4.03 µM (3.2-fold). The second is the more potent here.

Going from `O=C(O)COc1ccccc1C(=O)C=Cc1ccccn1` [Compound 59] to `CCOC(=O)CCCCCOc1ccccc1C(=O)C=Cc1ccccn1` [Compound 63], the IC50 falls from 33.8 µM to 6.05 µM (5.6-fold).

`CC1=C(C)C(=O)C(C(CCCCCC(=O)O)c2ccccc2)=C(C)C1=O` (stereo not shown) [Seratrodast, reference compound] and `Nc1ccsc1C=CC(=O)c1ccccc1OCCCCCC(=O)O` [Compound 78] are within 1.5-fold of each other in IC50: 5.27 µM for the first, 7.7 µM for the second.

`CCCCCCCCOc1ccc(C=CC(=O)c2ccc(OCCCCCCCC)cc2OCC(=O)OC)cc1` [Compound 92] and `CCCCCCOc1ccc(C=CC(=O)c2ccc(OCCCCCC)cc2OCC(=O)OC)cc1` [Compound 91] cannot be ordered by IC50: > 50 µM for the first, > 50 µM for the second.

Compared with `CCOC(=O)CCCCCOc1ccccc1C(=O)CCc1ccccc1` [Compound 115], `O=C(O)CCCCCOc1ccccc1C(=O)/C=C/c1ccccc1F` [Compound 1] is 84-fold lower in IC50: 5.87 µM for the first, 0.07 µM for the second.

Going from `COC(=O)COc1cc(OCc2ccc(F)cc2)ccc1C(=O)C=Cc1ccc(OCc2ccc(F)cc2)cc1` [Compound 86] to `CCCCCCOc1ccc(C=CC(=O)c2ccc(OCCCCCC)cc2OCC(=O)O)cc1` [Compound 95], the IC50 falls from > 100 µM to 76.3 µM.

First: CCOC(=O)COc1ccccc1C(=O)C=Cc1cccs1 [Compound 66]
Second: CCCCCCCCOc1ccc(C=CC(=O)c2ccc(OCCCCCCCC)cc2OCC(=O)O)cc1 [Compound 96]
The IC50 of the first is lower: 2.86 µM for the first, > 100 µM for the second.

For `CC(C)CCOc1ccc(CCC(=O)c2ccc(OCCC(C)C)cc2OCC(=O)O)cc1` [Compound 100], the IC50 was 66.8 µM.

Tested on: human platelet suspension (platelet aggregation caused by TxA2 agonist U46619)
Test: Platelet aggregation reaction test, U46619-induced
Type: cell-based
Conditions: not given
Experimental: as §1, §2

Compared with `CC(C)=CCOc1ccc(C=CC(=O)c2ccccc2OCCCC(=O)O)cc1` [Compound 99], `CC(C)=CCOc1ccc(C=CC(=O)c2ccccc2OCCCCCC(=O)O)cc1` [Compound 103] is 7.2-fold lower in IC50: 3.33 µM for the first, 0.46 µM for the second.

First: COC(=O)COc1cc(OCC=C(C)C)ccc1C(=O)CCc1ccc(OCC=C(C)C)cc1 [Compound 74]
Second: CC(C)=CCOc1cccc(/C=C/C(=O)c2ccc(OCC=C(C)C)cc2OCC(=O)O)c1 [Compound 20]
The IC50 of the first is higher: > 100 µM for the first, 20.6 µM for the second.

First: CCOC(=O)COc1ccccc1C(=O)C=Cc1ccc(O)cc1 [Compound 42]
Second: CCOC(=O)COc1ccccc1C(=O)C=Cc1ccc(N)cc1 [Compound 46]
The IC50 of the first is 1.7-fold lower: 38.7 µM for the first, 64 µM for the second. The first is the more potent here.

First: O=C(O)CCCCOc1ccccc1C(=O)C=Cc1ccccc1 [Compound 101]
Second: CCOC(=O)CCCCCOc1ccccc1C(=O)C=Cc1ccccc1 [Compound 111]
The IC50 of the first is 22-fold higher: 3.53 µM for the first, 0.16 µM for the second. The second is the more potent here.

First: CC(C)=CCOc1ccc(/C=C/C(=O)c2ccc(F)cc2OCCCC(=O)O)cc1 [Compound 9]
Second: CC(C)=CCOc1ccc(C(=O)/C=C/c2ccccc2F)c(OCCCC(=O)O)c1 [Compound 13]
The IC50 of the first is 11-fold higher: 5.44 µM for the first, 0.51 µM for the second. The second is the more potent here.

Compared with `COC(=O)COc1cc(O)ccc1C(=O)C=Cc1ccc(O)cc1` [Compound 69], `O=C(O)COc1cc(O)ccc1C(=O)C=Cc1ccc(O)cc1` [Compound 71] is 2.4-fold higher in IC50: 27.8 µM for the first, 65.4 µM for the second. The first is the more potent here.

Compared with `O=C(O)CCCCCOc1ccccc1C(=O)C=Cc1cccnc1` [Compound 54], `O=C(O)CCCCCOc1ccccc1C(=O)C=Cc1ccccn1` [Compound 53] is 9.2-fold higher in IC50: 5.45 µM for the first, 50.4 µM for the second.

Compared with `O=C(O)COc1ccccc1C(=O)C=Cc1ccc(Br)s1` [Compound 58], `O=C(O)COc1ccccc1C(=O)/C=C/c1ccc(F)cc1` [Compound 28] is 40-fold lower in IC50: 72.6 µM for the first, 1.8 µM for the second. The second is the more potent here.

First: CCOC(=O)COc1ccc(C=CC(=O)c2ccc(OCC(=O)OCC)cc2OCC(=O)O)cc1 [Compound 84]
Second: COc1ccc(/C=C/C(=O)c2ccc(OC)cc2OCC(=O)O)cc1 [Compound 18]
The IC50 of the first is lower: 80.8 µM for the first, > 100 µM for the second. The first is the more potent here.

`CCOC(=O)CCCCCOc1ccccc1C(=O)C=Cc1cccs1` [Compound 61] and `O=C(O)CCCCCOc1ccccc1C(=O)C=Cc1cccs1` [Compound 51] are within 1.5-fold of each other in IC50: 0.54 µM for the first, 0.57 µM for the second.

First: CC(C)=CCOc1ccc(C(=O)/C=C/c2ccccc2)c(OCC(=O)O)c1 [Compound 22]
Second: CC(C)=CCCC(C)=CCOc1ccc(C(=O)C=Cc2ccccc2)c(OCCCC(=O)O)c1 [Compound 7]
The IC50 of the first is 88-fold higher: 43.2 µM for the first, 0.49 µM for the second. The second is the more potent here.

Going from `O=C(O)COc1ccccc1C(=O)C=Cc1ccccn1` [Compound 59] to `CCOC(=O)CCCCCOc1ccccc1C(=O)C=Cc1ccccn1` [Compound 63], the IC50 falls from 72.1 µM to 4.57 µM (16-fold). The second is the more potent here.

Going from `CC1=C(C)C(=O)C(C(CCCCCC(=O)O)c2ccccc2)=C(C)C1=O` (stereo not shown) [Seratrodast, reference compound] to `Nc1ccsc1C=CC(=O)c1ccccc1OCCCCCC(=O)O` [Compound 78], the IC50 rises from 0.71 µM to 5.87 µM (8.3-fold). The first is the more potent here.

`CCCCCCCCOc1ccc(C=CC(=O)c2ccc(OCCCCCCCC)cc2OCC(=O)OC)cc1` [Compound 92] and `CCCCCCOc1ccc(C=CC(=O)c2ccc(OCCCCCC)cc2OCC(=O)OC)cc1` [Compound 91] cannot be ordered by IC50: > 50 µM for the first, > 50 µM for the second.

Going from `CCOC(=O)CCCCCOc1ccccc1C(=O)CCc1ccccc1` [Compound 115] to `O=C(O)CCCCCOc1ccccc1C(=O)/C=C/c1ccccc1F` [Compound 1], the IC50 rises from 0.2 µM to 0.51 µM (2.5-fold).

Compared with `COC(=O)COc1cc(OCc2ccc(F)cc2)ccc1C(=O)C=Cc1ccc(OCc2ccc(F)cc2)cc1` [Compound 86], `CCCCCCOc1ccc(C=CC(=O)c2ccc(OCCCCCC)cc2OCC(=O)O)cc1` [Compound 95] is lower in IC50: > 100 µM for the first, 36.9 µM for the second.

Compared with `CCOC(=O)COc1ccccc1C(=O)C=Cc1cccs1` [Compound 66], `CCCCCCCCOc1ccc(C=CC(=O)c2ccc(OCCCCCCCC)cc2OCC(=O)O)cc1` [Compound 96] is higher in IC50: 70.2 µM for the first, > 100 µM for the second.

For `CC(C)CCOc1ccc(CCC(=O)c2ccc(OCCC(C)C)cc2OCC(=O)O)cc1` [Compound 100], the IC50 was 1.73 µM.
